In experiment [1] the target is T1, TLR8 (Homo sapiens, UniProt Q9NR97).
T1 sequence (Q9NR97 27-1041): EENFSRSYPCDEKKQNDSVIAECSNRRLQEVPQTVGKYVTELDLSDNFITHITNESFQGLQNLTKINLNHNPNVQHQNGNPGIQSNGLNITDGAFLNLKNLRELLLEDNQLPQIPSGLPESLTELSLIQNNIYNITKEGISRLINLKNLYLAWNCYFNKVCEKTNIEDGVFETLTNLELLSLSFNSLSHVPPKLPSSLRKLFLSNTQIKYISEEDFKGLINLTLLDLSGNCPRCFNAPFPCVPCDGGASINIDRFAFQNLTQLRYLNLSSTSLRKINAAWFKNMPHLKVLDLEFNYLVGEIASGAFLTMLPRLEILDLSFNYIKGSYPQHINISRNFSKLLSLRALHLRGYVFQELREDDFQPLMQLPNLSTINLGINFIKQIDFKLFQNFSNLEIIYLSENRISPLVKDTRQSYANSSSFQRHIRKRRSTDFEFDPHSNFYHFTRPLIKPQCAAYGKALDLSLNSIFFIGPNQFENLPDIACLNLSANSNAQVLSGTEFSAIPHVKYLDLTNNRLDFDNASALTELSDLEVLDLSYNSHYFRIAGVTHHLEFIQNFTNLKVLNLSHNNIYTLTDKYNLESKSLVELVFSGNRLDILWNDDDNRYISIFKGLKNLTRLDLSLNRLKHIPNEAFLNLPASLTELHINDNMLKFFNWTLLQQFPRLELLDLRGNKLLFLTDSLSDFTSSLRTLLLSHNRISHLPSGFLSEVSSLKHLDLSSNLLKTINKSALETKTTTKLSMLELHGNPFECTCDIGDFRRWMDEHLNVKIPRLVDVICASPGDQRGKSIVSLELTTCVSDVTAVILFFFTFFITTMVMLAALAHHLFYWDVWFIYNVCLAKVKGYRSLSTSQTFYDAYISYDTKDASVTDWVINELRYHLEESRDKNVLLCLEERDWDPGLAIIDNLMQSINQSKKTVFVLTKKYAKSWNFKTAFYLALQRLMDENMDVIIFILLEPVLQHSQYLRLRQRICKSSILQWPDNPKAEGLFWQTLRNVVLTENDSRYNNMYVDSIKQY
The experiment in a line: Inhibition of TL8-506-stimulated TNF release (ELISA) in PBMCs. The settings on record: read-out: IC50 [μM] (95% CI) TNF release PBMCs, 1 h preincubation, TL8-506 (0.6 μM) 4 h.
Description: For the calculation of concentration–response curves, nonlinear regression with variable slope (four parameters) was used. Mean ± SEM (n = 3).
PMBCs were washed three times with PBS containing ETDA and afterward seeded in 24-well plates (5 × 10^6 cells/well).

Experiment [2] addresses T2, hTLR7 (Homo sapiens, UniProt Q9NYK1).
T2 construct: host or cells: HEK293 (HEK-Blue hTLR7)
T2 sequence (Q9NYK1 27-1049): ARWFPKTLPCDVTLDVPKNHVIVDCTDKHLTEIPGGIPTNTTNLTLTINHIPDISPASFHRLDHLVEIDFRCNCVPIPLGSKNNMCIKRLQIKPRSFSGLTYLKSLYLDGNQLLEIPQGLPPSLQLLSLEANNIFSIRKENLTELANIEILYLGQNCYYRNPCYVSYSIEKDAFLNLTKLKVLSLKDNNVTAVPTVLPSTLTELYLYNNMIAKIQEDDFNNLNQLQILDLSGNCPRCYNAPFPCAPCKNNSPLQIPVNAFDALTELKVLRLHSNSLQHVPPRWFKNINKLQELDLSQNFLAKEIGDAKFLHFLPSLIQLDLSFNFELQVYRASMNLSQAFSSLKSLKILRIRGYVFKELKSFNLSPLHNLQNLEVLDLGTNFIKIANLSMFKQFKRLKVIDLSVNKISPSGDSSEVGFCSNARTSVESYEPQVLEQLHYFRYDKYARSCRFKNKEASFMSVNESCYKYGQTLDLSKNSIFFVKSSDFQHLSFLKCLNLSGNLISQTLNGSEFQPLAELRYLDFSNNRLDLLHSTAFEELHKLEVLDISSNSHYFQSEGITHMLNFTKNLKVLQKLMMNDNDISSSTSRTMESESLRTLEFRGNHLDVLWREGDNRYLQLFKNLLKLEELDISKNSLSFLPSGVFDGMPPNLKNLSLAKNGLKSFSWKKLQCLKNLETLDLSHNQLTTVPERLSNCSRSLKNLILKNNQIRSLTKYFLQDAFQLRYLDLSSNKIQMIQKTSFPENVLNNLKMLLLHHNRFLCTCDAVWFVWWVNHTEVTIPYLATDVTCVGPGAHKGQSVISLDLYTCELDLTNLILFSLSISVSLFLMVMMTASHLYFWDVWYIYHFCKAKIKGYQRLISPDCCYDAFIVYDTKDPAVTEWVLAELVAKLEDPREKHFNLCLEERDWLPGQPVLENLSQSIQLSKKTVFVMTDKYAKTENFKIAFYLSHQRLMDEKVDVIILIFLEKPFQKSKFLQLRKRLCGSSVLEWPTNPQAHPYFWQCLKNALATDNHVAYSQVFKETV
The experiment is described as follows: Inhibition of CL307-stimulated NF-κB activity (SEAP reporter) in hTLR7-HEK293 reporter cells. The settings on record: read-out: IC50 [μM] (95% CI) hTLR7-HEK293; inhibition of NF-κB activity; 1 h preincubation, CL307 (1.7 µM) 24 h. The class given is cell-based. From the text: For stimulation experiments, cells were washed with phosphate-buffered saline (PBS, Sigma-Aldrich) and media was replaced with OptiMEM (Thermo Fisher Scientific, Darmstadt, Germany). […] The following TLR ligands were used: Pam2CSK4, Pam3CSK4, poly(I:C) (HMW), LPS from Escherichia coli O111:B4 (LPS-EB Ultrapure), flagellin from Bacillus subtilis (flagellin-BS Ultrapure), CL307, CL075, R848, TL8-506, ODN2006 (all from InvivoGen, Toulouse, France), and Enpatoran (BIOZOL Diagnostika, Germany).

For experiment [3], the target named is T1, TLR8. The experiment is described as follows: Inhibition of TL8-506-stimulated NF-κB activity (SEAP reporter, QuantiBlue) in hTLR8-HEK293 reporter cells. The settings on record: TL8-506 (0.6 μM) 24 h. More on the design: host or cells: HEK293 (HEK-Blue hTLR8). The format is cell-based.
Experiment [4] concerns the target T3, TLR8 F495L mutation (Homo sapiens, UniProt Q9NR97, F495L).
T3 construct: host or cells: HEK-Blue Null1 cells, transient transfection with PEI Max
T3 sequence (Q9NR97 1-1059 isoform Q9NR97-2 F513L): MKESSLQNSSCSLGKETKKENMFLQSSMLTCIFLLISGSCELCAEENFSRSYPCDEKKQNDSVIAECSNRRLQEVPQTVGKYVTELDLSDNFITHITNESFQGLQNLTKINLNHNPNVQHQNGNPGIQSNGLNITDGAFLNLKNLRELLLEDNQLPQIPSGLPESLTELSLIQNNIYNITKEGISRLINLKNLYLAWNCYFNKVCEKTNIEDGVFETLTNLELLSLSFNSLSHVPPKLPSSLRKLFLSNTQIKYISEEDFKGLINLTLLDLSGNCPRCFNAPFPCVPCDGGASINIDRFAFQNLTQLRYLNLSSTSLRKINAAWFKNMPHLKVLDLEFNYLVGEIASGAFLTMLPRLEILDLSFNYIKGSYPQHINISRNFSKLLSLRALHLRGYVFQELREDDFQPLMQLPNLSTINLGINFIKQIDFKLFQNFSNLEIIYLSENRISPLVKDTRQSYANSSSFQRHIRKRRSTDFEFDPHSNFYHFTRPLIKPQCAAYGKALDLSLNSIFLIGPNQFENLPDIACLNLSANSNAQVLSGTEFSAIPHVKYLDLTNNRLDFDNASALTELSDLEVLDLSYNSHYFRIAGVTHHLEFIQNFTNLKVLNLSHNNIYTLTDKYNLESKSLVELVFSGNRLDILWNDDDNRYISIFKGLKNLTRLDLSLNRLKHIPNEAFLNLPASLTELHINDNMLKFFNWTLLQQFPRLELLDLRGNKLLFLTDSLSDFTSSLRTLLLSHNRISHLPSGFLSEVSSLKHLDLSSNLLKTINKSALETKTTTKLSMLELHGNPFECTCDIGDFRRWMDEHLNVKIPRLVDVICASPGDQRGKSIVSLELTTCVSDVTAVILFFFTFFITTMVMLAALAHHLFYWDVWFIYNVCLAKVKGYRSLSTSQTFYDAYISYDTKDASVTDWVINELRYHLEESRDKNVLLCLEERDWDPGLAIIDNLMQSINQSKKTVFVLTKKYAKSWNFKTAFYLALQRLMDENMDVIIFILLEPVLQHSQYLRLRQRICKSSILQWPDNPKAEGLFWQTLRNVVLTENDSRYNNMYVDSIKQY
The experiment in a line: NF-κB SEAP reporter in HEK293 reporter control cells transfected with TLR8 F495L mutant plasmid. The format is cell-based. The note with it: compound 10 2 μM, Enpatoran 1 μM; TL8-506 3 μM or CL075 4 μM, 24 h.

Bounds are passed on as bounds.

In general, IC50 refers to the midpoint of a concentration-inhibition curve. As a reminder, the inhibition is the change of the read-out against control, counted positive when it falls. For the compound `N#Cc1ccc(N2C[C@H](N)C[C@H](C(F)(F)F)C2)c2cccnc12` [Enpatoran, reference compound], the 50% inhibitory concentration (IC50) in experiment [1] is 0.074 µM; in experiment [2], at most 0.05 µM; in experiment [3] (read-out: IC50 [μM] (95% CI) hTLR8-HEK293, inhibition of NF-κB activity, 1 h preincubation), 0.285 µM. Besides, the inhibition at 10 µM in experiment [3] (read-out: % inhibition at 10 µM ± SEM (NF-κB activity), 10 µM compound, hTLR8-HEK293) was 100%. The “TLR8 activation in F495L mutation, triggered by CL075 and TL8-506” value in experiment [4] was “reduced”.
